Measurements: PubChem BioAssay (NCI)
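These data come from cells grown in 96-well plates and exposed to compound for 48 hours at five concentrations. Definition used: TGI = concentration required for complete inhibition of growth.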

Assays:
Assay in all cases: NCI-60 cell line screen, 48 h
SF-295 CNS = tested on: SF-295 CNS
MDA-MB-435 = tested on: MDA-MB-435
SR leukemia = tested on: SR leukemia
PC-3 prostate = tested on: PC-3 prostate
SW-620 colon = tested on: SW-620 colon
DU-145 prostate = tested on: DU-145 prostate
EKVX NSCLC = tested on: EKVX NSCLC
NCI-H23 lung = tested on: NCI-H23 lung
U251 CNS = tested on: U251 CNS
HOP-62 NSCLC = tested on: HOP-62 NSCLC
ACHN renal = tested on: ACHN renal
COLO 205 colon = tested on: COLO 205 colon
SNB-19 CNS = tested on: SNB-19 CNS
MDA-N = tested on: MDA-N
OVCAR-5 ovarian = tested on: OVCAR-5 ovarian
NCI-H460 lung = tested on: NCI-H460 lung
HL-60(TB) leukemia = tested on: HL-60(TB) leukemia
RPMI-8226 leukemia = tested on: RPMI-8226 leukemia
BT-549 breast = tested on: BT-549 breast
SNB-75 CNS = tested on: SNB-75 CNS
A498 renal = tested on: A498 renal
UACC-62 melanoma = tested on: UACC-62 melanoma
K-562 leukemia = tested on: K-562 leukemia
HCT-116 colon = tested on: HCT-116 colon
OVCAR-3 ovarian = tested on: OVCAR-3 ovarian
MCF7 breast = tested on: MCF7 breast
NCI-H226 lung = tested on: NCI-H226 lung
NCI/ADR-RES ovarian = tested on: NCI/ADR-RES ovarian
HOP-92 NSCLC = tested on: HOP-92 NSCLC
SK-MEL-2 melanoma = tested on: SK-MEL-2 melanoma
IGROV1 ovarian = tested on: IGROV1 ovarian
T-47D breast = tested on: T-47D breast
OVCAR-8 ovarian = tested on: OVCAR-8 ovarian
SK-MEL-5 melanoma = tested on: SK-MEL-5 melanoma
KM12 colon = tested on: KM12 colon
UACC-257 melanoma = tested on: UACC-257 melanoma
MOLT-4 leukemia = tested on: MOLT-4 leukemia
HCC-2998 colon = tested on: HCC-2998 colon
A549 NSCLC = tested on: A549 NSCLC
M14 melanoma = tested on: M14 melanoma
SF-539 CNS = tested on: SF-539 CNS
UO-31 renal = tested on: UO-31 renal
LOX IMVI melanoma = tested on: LOX IMVI melanoma
CCRF-CEM leukemia = tested on: CCRF-CEM leukemia
786-0 renal = tested on: 786-0 renal
SK-OV-3 ovarian = tested on: SK-OV-3 ovarian
CAKI-1 renal = tested on: CAKI-1 renal
HCT-15 colon = tested on: HCT-15 colon
SN12C renal = tested on: SN12C renal
SK-MEL-28 melanoma = tested on: SK-MEL-28 melanoma
OVCAR-4 ovarian = tested on: OVCAR-4 ovarian
HS 578T breast = tested on: HS 578T breast
RXF 393 renal = tested on: RXF 393 renal
HT29 colon = tested on: HT29 colon
SF-268 CNS = tested on: SF-268 CNS
MDA-MB-231 breast = tested on: MDA-MB-231 breast
TK-10 renal = tested on: TK-10 renal
MALME-3M melanoma = tested on: MALME-3M melanoma
NCI-H522 lung = tested on: NCI-H522 lung

Measured: TGI

N#C/C(C(=O)Nc1ccc(Cl)cc1)=C(/N)N1CCCC1
not listed: OVCAR-4 ovarian | HS 578T breast | RXF 393 renal | HT29 colon | SF-268 CNS | MDA-MB-231 breast | TK-10 renal | MALME-3M melanoma | NCI-H522 lung
> 100 µM: all other assays above

O=c1cc(-c2ccncc2)[nH]c2cc3c(cc12)OCO3
not listed: SR leukemia | PC-3 prostate | HL-60(TB) leukemia | BT-549 breast | K-562 leukemia | LOX IMVI melanoma | CCRF-CEM leukemia | CAKI-1 renal | MALME-3M melanoma | NCI-H522 lung
> 100 µM: all other assays above

CSC(SC)=C(C(=O)O)P(=O)(O)O
not listed: MDA-MB-435 | U251 CNS | RPMI-8226 leukemia | BT-549 breast | SNB-75 CNS | K-562 leukemia | UO-31 renal
> 100 µM: all other assays above

CC1(C)OCC2OC3([C@@H]4OC(C)(C)O[C@H]4CO)OC(C)(C)OC3C2O1 (some centres not stated)
not listed: HL-60(TB) leukemia | SK-OV-3 ovarian | HS 578T breast | HT29 colon | SF-268 CNS | TK-10 renal | MALME-3M melanoma | NCI-H522 lung
> 100 µM: all other assays above
